Reference: patent US11260056B2, “Diaminopyrimidine P2X3 and P2X2/3 receptor modulators for use in the treatment of cough” (Afferent Pharmaceuticals, Inc., priority 2015, dated 2022)

What was measured:
Format in all cases: in vivo, human
[1] = tested on: treatment-resistant chronic cough patients; experiment: Double-blind randomized placebo-controlled crossover trial in idiopathic/treatment-resistant chronic cough; conditions: 600 mg bd
Method: Thus, the inventors explored the role of P2X3 receptors in the sensitization of vagal pathways mediating the cough reflex leading to chronic cough (CC). A study was performed to investigate the efficacy of oral administration of Compound 16 in reducing daytime cough in idiopathic/treatment-resistant chronic cough.
In this study, a double-blind randomized placebo-controlled crossover trial, 24 subjects (19 women, mean age 55 yrs) were randomized into a double blind, placebo-controlled, 2-period, crossover study, of Compound 16, 600 mg bd. Cough was assessed using an ambulatory sound monitoring system at baseline and after 2 weeks of treatment; primary endpoint, daytime objective cough frequency (coughs/hr) (VitaloJAK™); secondary endpoints, cough severity and urge to cough (UTC) visual analogue scales (VAS), global ratings of change and cough quality of life questionnaire (CQLQ).

[2] = Phase 1/Phase 2 clinical studies: safety, tolerability and pharmacokinetics after oral administration
Method: Compound 16 has progressed to completion of 6 Phase 1 studies and 5 Phase 2 studies, with several studies in progress or soon to commence, and over 400 subjects dosed at least once with Compound 16. […] Studies in normal healthy volunteers have explored safety, tolerability and pharmacokinetics of Compound 16 following oral administration of doses from 10 mg to 1800 mg for up to 3 weeks. […] Plasma half-life falls in the range of 7-9 h, with steady state for BID dosing achieved after 3 doses.

chronic cough patients = experiment: Phase 2b dose-escalation crossover study in chronic cough patients
Method: Cough frequency was measured objectively utilizing a cough recording device, with periodic measurements following Compound 16 treatment compared to a baseline recording.
The 29-patient randomized, double-blind, placebo controlled, Phase 2b crossover study was conducted at 10 clinical sites in the U.S. Patients were randomized to either Compound 16 or placebo arms. Those in the treatment group received Compound 16 50 mg, followed by a titration up to 100 mg, 150 mg and 200 mg, with each dose given twice daily for four days. Treatment period one was followed by a 3-5 day washout period. Patients were then crossed over to the alternate arm of the study and treated with either Compound 16 or placebo for 16 more days.

With `COc1cc(C(C)C)c(Oc2cnc(N)nc2N)cc1S(N)(=O)=O` [Compound 16, 5-(2,4-Diamino-pyrimidin-5-yloxy)-4-isopropyl-2-methoxy-benzenesulfonamide] the “CQLQ (cough quality of life questionnaire), mean difference vs. placebo” value ([1]; 2 weeks, (−2 to −17), p=0.018) was −9, the “UTC (urge to cough) VAS, mean difference vs. placebo” value ([1]; 2 weeks, (−2 to −41), p=0.035) was −21 mm and the “cough severity VAS, mean difference vs. placebo” value ([1]; 2 weeks, (−10 to −42), p=0.003) was −26 mm. For the same molecule, the “daytime coughs/hr, mean difference vs. placebo” value ([1]; after 2 weeks of treatment, 95% CI −50 to −88, p<0.001) was −75%, the “patients who rated an improved cough” value ([1]; compared to 2/22 treated with placebo) was 13/24 and the “reduction in objective daytime cough counts” value ([1]; patients with refractory chronic cough) was 75%. The “steady state for BID dosing achieved after” value ([2]; human, oral BID dosing) was 3 doses, the oral bioavailability ([2]; human, based on % dose recovered in urine) was “appears to be high” and the Clinical safety ([2]; over 400 subjects dosed at least once, 10 mg to 1800 mg) was “excellent”. The “adverse events (AEs)” value ([2]; patients and healthy volunteers, dose-dependent, notable at higher dose levels) was “limited to oropharyngeal findings (hypogeusia)”, the half-life ([2]; plasma, human, oral, immediate release formulation) was 7 to 9 h and the “incidence of decreased taste acuity” value (chronic cough patients; 50 mg dose versus 600 mg twice daily in the first study) was “much less at the 50 mg dose”. The tolerability (chronic cough patients; 50-200 mg twice daily) was “generally well tolerated” and the “patients who discontinued treatment due to the taste effect” value (chronic cough patients; at any dose, 29 patients) was “Only one patient discontinued treatment”.
